# Article PMC12527922, “Cocaine chemogenetics blunts drug-seeking by synthetic physiology” (Nature, 2025)
# Several values for one entry are separate records, joined by “and”; a condition that tells them apart may be missing. Equal values may be shown once. Read-outs that look alike come from different tables or passages of the source.
# Key:
# unmodified α7–5HT3 = biological target: T1, unmodified α7–5HT3 (UniProt P23979+P36544, M226I/T225I); experiment: Membrane potential assay, unmodified α7–5HT3; assay type: cell-based, human α7 nAChR LBD, mouse 5HT3 IPD; details: a7-5Ht3; for Max normalized AVG: AVG of DR 1-3; for Max normalized, single replicate: relative to ACh max of the DR
# T1 construct: expressed in transfected cells; host or cells: HEK293 (ATCC CRL-1573), pcDNA3.1
# unmodified α7–GlyR = biological target: T2, unmodified α7–GlyR (Homo sapiens, UniProt P23415+P36544); experiment: Membrane potential assay, unmodified α7–GlyR; assay type: cell-based; details: a7-GlyR; for Max normalized AVG: AVG of DR 1-3
# T2 construct: expressed in transfected cells; host or cells: HEK293 (ATCC CRL-1573), pcDNA3.1
# [1] = biological target: T3, coca-GlyR (α7(L141G,G175K,Y217F)–GlyR) (Homo sapiens, UniProt P23415+P36544, G175K/L141G/Y217F); experiment: Membrane potential assay, coca-GlyR in HEK293; assay type: cell-based; details: coca-GlyR; for Max normalized AVG: AVG of DRs
# T3 construct: expressed in transfected cells; host or cells: HEK293 (ATCC CRL-1573), pcDNA3.1
# [2] = system: α7–5HT3 mutant chimeric channels; experiment: cell-based; assay type: cell-based, human α7 nAChR LBD, mouse 5HT3 IPD; details: for EC50: sheet 1e
# coca-5HT3 = experiment: Whole-cell voltage-clamp in HEK293 cells, coca-5HT3; assay type: cell-based, human α7 nAChR LBD, mouse 5HT3 IPD
# Procedure: Channel mutants and agonists were further characterized in whole-cell voltage-clamp experiments performed on HEK293 cells. At passage 44–48, cells were plated at low density (1 × 10^3 per cm^2) on poly-D-lysine-coated glass coverslips, then transfected in 10 cm^2 wells using the Fugene 6 transfection reagent (Roche) with DNA plasmids containing both an ion channel cDNA (pcDNA3.1, 2 µg per well) and cDNA for GFP (pCMV, 0.1 μg per well), followed by replacement of the medium after 3 h. Recordings were made 24–72 h after transfection.
# Electrophysiological recordings were performed in whole-cell voltage-clamp mode, on an inverted fluorescence microscope (Olympus IX-51) using pClamp software and a […] amplifier (Molecular Devices). Electrophysiological data was filtered at 4 kHz, digitized at 10 kHz using a Digidata 1400 interface (Molecular Devices), recorded on a PC (Dell) and analysed using custom MATLAB software (MathWorks). Solutions were delivered from a gravity fed perfusion system through a capillary tube placed approximately […] from the recorded cell using an eight-way manifold pinch valve system (Nanion), which was controlled from the acquisition software. This allowed for up to seven concentrations of agonist to be tested. […]
# [3] = screen of chimeric α7–5HT3 and α7–GlyR single LBD mutants (Fig. 1d)
# T2 sequence (P36544+P23415 fused): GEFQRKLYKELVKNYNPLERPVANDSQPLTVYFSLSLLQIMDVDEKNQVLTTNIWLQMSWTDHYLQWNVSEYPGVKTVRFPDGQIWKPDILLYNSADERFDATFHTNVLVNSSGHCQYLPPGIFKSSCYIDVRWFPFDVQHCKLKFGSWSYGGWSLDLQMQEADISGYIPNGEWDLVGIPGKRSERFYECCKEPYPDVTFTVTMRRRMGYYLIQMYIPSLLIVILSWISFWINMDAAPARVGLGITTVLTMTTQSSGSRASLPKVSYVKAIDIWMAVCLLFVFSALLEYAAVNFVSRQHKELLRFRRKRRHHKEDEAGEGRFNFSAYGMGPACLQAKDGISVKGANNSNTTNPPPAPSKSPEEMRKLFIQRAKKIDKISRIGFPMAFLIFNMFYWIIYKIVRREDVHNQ
# T1 sequence (P36544+P23979 fused P36544:T225I/P36544:M226I): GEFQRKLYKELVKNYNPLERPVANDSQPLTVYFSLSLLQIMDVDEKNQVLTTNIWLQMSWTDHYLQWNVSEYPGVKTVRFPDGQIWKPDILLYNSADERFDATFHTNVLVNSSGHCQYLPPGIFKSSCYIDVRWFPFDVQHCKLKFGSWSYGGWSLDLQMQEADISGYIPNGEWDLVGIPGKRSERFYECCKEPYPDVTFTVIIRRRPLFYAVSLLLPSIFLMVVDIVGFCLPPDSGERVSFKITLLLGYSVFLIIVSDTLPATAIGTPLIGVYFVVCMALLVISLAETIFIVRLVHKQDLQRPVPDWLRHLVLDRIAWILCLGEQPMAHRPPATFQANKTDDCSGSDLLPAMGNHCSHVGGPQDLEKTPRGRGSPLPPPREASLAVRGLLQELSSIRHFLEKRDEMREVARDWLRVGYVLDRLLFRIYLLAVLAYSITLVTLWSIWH
# T3 sequence (P36544+P23415 fused P36544:L141G/P36544:G175K/P36544:Y217F): as the sequence (P36544+P23415 fused) above, with L119G, G153K, Y195F counted along it
structure (smiles),measurement,setting,value
"CC(=O)OCC[N+](C)(C)C [ACh, acetylcholine]","DR response, single replicate",unmodified α7–5HT3; concentration 0.0457247,0.056 and 0.121 and 0.112
same,Max normalized AVG,unmodified α7–5HT3; concentration 0.0457247,0.09523
same,"Max normalized, single replicate",unmodified α7–5HT3; concentration 0.0457247,0.1142 and 0.1039 and 0.06763
same,"DR response, single replicate",unmodified α7–5HT3; concentration 0.137174,0.034 and 0.057 and 0.037
same,Max normalized AVG,unmodified α7–5HT3; concentration 0.137174,0.04305
same,"Max normalized, single replicate",unmodified α7–5HT3; concentration 0.137174,0.05377 and 0.03432 and 0.04106
same,"DR response, single replicate",unmodified α7–5HT3; concentration 0.411523,0.071 and 0.056 and 0.06
same,Max normalized AVG,unmodified α7–5HT3; concentration 0.411523,0.06475
same,"Max normalized, single replicate",unmodified α7–5HT3; concentration 0.411523,0.05283 and 0.05566 and 0.08575
same,"DR response, single replicate",unmodified α7–5HT3; concentration 1.23457,0.065 and 0.06 and 0.083
same,Max normalized AVG,unmodified α7–5HT3; concentration 1.23457,0.0707
same,"Max normalized, single replicate",unmodified α7–5HT3; concentration 1.23457,0.0566 and 0.07699 and 0.0785
same,"DR response, single replicate",unmodified α7–5HT3; concentration 3.7037,0.161 and 0.213 and 0.204
same,Max normalized AVG,unmodified α7–5HT3; concentration 3.7037,0.1949
same,"Max normalized, single replicate",unmodified α7–5HT3; concentration 3.7037,0.2009 and 0.1892 and 0.1944
same,"DR response, single replicate",unmodified α7–5HT3; concentration 11.1111,0.486 and 0.61 and 0.657
same,Max normalized AVG,unmodified α7–5HT3; concentration 11.1111,0.5906
same,"Max normalized, single replicate",unmodified α7–5HT3; concentration 11.1111,0.5755 and 0.6095 and 0.587
same,"DR response, single replicate",unmodified α7–5HT3; concentration 33.3333,0.828 and 1.06 and 1.078
same,Max normalized AVG,unmodified α7–5HT3; concentration 33.3333,1
same,"Max normalized, single replicate",unmodified α7–5HT3; concentration 33.3333,1
same,"DR response, single replicate",unmodified α7–5HT3; concentration 100,0.762 and 0.959 and 0.926
same,Max normalized AVG,unmodified α7–5HT3; concentration 100,0.8947
same,"Max normalized, single replicate",unmodified α7–5HT3; concentration 100,0.9047 and 0.859 and 0.9203
same,max (DR response of the replicate),unmodified α7–5HT3; largest response of each DR,0.828 and 1.06 and 1.078
same,"Max normalized, single replicate",unmodified α7–GlyR; [ACh] 0.0457247,0.2482 and 0.1071 and 0.173
same,Max normalized AVG,unmodified α7–GlyR; [ACh] 0.0457247,0.1761
same,Max normalized AVG,unmodified α7–GlyR; [ACh] 0.137174,0.1486
same,"Max normalized, single replicate",unmodified α7–GlyR; [ACh] 0.411523,0.2506 and 0.0705 and 0.1596
same,Max normalized AVG,unmodified α7–GlyR; [ACh] 0.411523,0.1602
same,"Max normalized, single replicate",unmodified α7–GlyR; [ACh] 1.23457,0.2787 and 0.09661 and 0.1213
same,Max normalized AVG,unmodified α7–GlyR; [ACh] 1.23457,0.1655
same,"Max normalized, single replicate",unmodified α7–GlyR; [ACh] 3.7037,0.4426 and 0.3029 and 0.2921
same,Max normalized AVG,unmodified α7–GlyR; [ACh] 3.7037,0.3459
same,"Max normalized, single replicate",unmodified α7–GlyR; [ACh] 11.1111,0.8337 and 0.671 and 0.6315
same,Max normalized AVG,unmodified α7–GlyR; [ACh] 11.1111,0.7121
same,"Max normalized, single replicate",unmodified α7–GlyR; [ACh] 33.3333,0.9719 and 0.9347 and 0.9843
same,Max normalized AVG,unmodified α7–GlyR; [ACh] 33.3333,0.9636
same,"Max normalized, single replicate",unmodified α7–GlyR; [ACh] 100,1
same,Max normalized AVG,unmodified α7–GlyR; [ACh] 100,1
same,"DR response, single replicate",unmodified α7–GlyR; concentration 0.0457247,0.077 and 0.106 and 0.041
same,"DR response, single replicate",unmodified α7–GlyR; concentration 0.137174,0.046 and 0.076 and 0.063
same,"DR response, single replicate",unmodified α7–GlyR; concentration 0.411523,0.071 and 0.107 and 0.027
same,"DR response, single replicate",unmodified α7–GlyR; concentration 1.23457,0.054 and 0.119 and 0.037
same,"DR response, single replicate",unmodified α7–GlyR; concentration 3.7037,0.13 and 0.189 and 0.116
same,"DR response, single replicate",unmodified α7–GlyR; concentration 11.1111,0.281 and 0.356 and 0.257
same,"DR response, single replicate",unmodified α7–GlyR; concentration 33.3333,0.438 and 0.415 and 0.358
same,"DR response, single replicate",unmodified α7–GlyR; concentration 100,0.445 and 0.427 and 0.383
same,max (DR response of the replicate),unmodified α7–GlyR; largest response of each DR,0.445 and 0.427 and 0.383
same,"DR response, single replicate",[1]; [ACh] 1.37174,0.018 and 0.006 and 0.023 and 0.1 and 0.117 and 0.055 and 0.048 and 0.049
same,"Max normalized, single replicate",[1]; [ACh] 1.37174,0.004983 and 0.06336 and 0.1695 and 0.06161 and 0.07891 and 0.05993 and 0.05731 and 0.01172
same,Max normalized AVG,[1]; [ACh] 1.37174,0.06341
same,"DR response, single replicate",[1]; [ACh] 4.11523,0.031 (2×) and 0.023 and 0.017 and 0.194 and 0.139 and 0.02 and 0.098
same,"Max normalized, single replicate",[1]; [ACh] 4.11523,0.0191 and 0.04683 and 0.3288 and 0.0732 and 0.02869 and 0.0387 and 0.1146 and 0.02018
same,Max normalized AVG,[1]; [ACh] 4.11523,0.08377
same,"DR response, single replicate",[1]; [ACh] 12.3457,0.127 and 0.17 and 0.031 and 0.325 and 0.191 and 0.086 and 0.042 and 0.079
same,Max normalized AVG,[1]; [ACh] 12.3457,0.1536
same,"DR response, single replicate",[1]; [ACh] 37.037,0.513 and 0.713 and 0.076 and 0.453 and 1.051 and 0.206 and 0.22 and 0.227
same,"Max normalized, single replicate",[1]; [ACh] 37.037,0.5922 and 0.2094 and 0.7678 and 0.5534 and 0.2956 and 0.2747 and 0.2655 and 0.334
same,Max normalized AVG,[1]; [ACh] 37.037,0.4116
same,"DR response, single replicate",[1]; [ACh] 111.111,1.218 and 1.065 and 0.222 and 0.557 and 1.552 and 0.373 and 0.414 and 0.475
same,Max normalized AVG,[1]; [ACh] 111.111,0.7072
same,"Max normalized, single replicate",[1]; [ACh] 333.333,0.9626 and 0.9449 and 1 (5×) and 0.9414
same,Max normalized AVG,[1]; [ACh] 333.333,0.9811
same,"DR response, single replicate",[1]; [ACh] 1000,1.536 and 1.204 and 0.363 and 0.524 and 0.67 and 0.657 and 0.77
same,"Max normalized, single replicate",[1]; [ACh] 1000,1 (3×) and 0.8881 and 0.9613 and 0.8202 and 0.9006
same,Max normalized AVG,[1]; [ACh] 1000,0.9386
same,"DR response, single replicate",[1]; [ACh] 3000,1.183 and 0.791 and 0.464
same,"Max normalized, single replicate",[1]; [ACh] 3000,0.657 and 0.7864 and 0.7702
same,Max normalized AVG,[1]; [ACh] 3000,0.7379
same,currents from coca-5HT3,coca-5HT3,shifted above physiological concentrations
